SMILES strings stand for the structures.

In the assay the target is GST-tagged truncated human mutant G2019S LRRK2 (Homo sapiens, UniProt Q5S007, G2019S). In words: LRRK2 G2019S Km ATP LanthaScreen assay. The class given is biochemical. The settings on record: 134 μM ATP (Km ATP), LRRKtide substrate, mean IC50 values; read-out: LRRK2 pIC50 (converted). The method, boiled down:
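Compound preincubated 15 min at room temperature with enzyme in pH 8.5 Tris buffer (10 mM MgCl2). Then a 90 min reaction at ambient temperature with 134 μM (Km) ATP and fluorescein-LRRKtide. EDTA stop, Tb anti-phospho antibody TR-FRET; […]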
As to `CC1CN(c2cc3nc(Nc4cnn(C5CC5)c4Cl)ncc3cc2Cl)CCN1CC(C)(C)O` (stereo not shown) [Ex-1.32, 1-(4-{6-chloro-2-[(5-chloro-1-cyclopropyl-1H-pyrazol-4-yl)amino]quinazolin-7-yl}-2-methylpiperazin-1-yl)-2-methylpropan-2-ol], the IC50 is 5.49 nM.
For the molecule `Clc1cc2cnc(Nc3cnn(C4CC4)c3Cl)nc2cc1N1C[C@@H]2C[C@H]1CN2C1COC1` [Ex-1.33, 6-chloro-N-(5-chloro-1-cyclopropyl-1H-pyrazol-4-yl)-7-[(1S,4S)-5-(oxetan-3-yl)-2,5-diazabicyclo[2.2.1]heptan-2-yl]quinazolin-2-amine], the IC50 is 26.1 nM.
On to `CC1(O)CCN(c2cc3nc(Nc4cnn(C5CC5)c4Cl)ncc3cc2Cl)CC1` [Ex-1.34, 1-{6-chloro-2-[(5-chloro-1-cyclopropyl-1H-pyrazol-4-yl)amino]quinazolin-7-yl}-4-methylpiperidin-4-ol], for which the IC50 is 1.39 nM.
Regarding `OC1C2CC1CN(c1cc3nc(Nc4cnn(C5CC5)c4Cl)ncc3cc1Cl)C2` (stereo not shown) [Ex-1.35, 3-{6-chloro-2-[(5-chloro-1-cyclopropyl-1H-pyrazol-4-yl)amino]quinazolin-7-yl}-3-azabicyclo[3.1.1]heptan-6-ol], the IC50 was 3.48 nM.
For `C[C@]1(O)[C@@H]2CC[C@H]1CN(c1cc3nc(Nc4cnn(C5CC5)c4)ncc3cc1Cl)C2` [Ex-1.36, (8-syn)-3-{6-chloro-2-[(1-cyclopropyl-1H-pyrazol-4-yl)amino]quinazolin-7-yl}-8-methyl-3-azabicyclo[3.2.1]octan-8-ol], the IC50 is 6.72 nM.
Consider `OC1CN(C2CCN(c3cc4nc(Nc5cnn(C6CC6)c5Cl)ncc4cc3Cl)CC2)C1` [Ex-1.37, 1-(1-{6-chloro-2-[(5-chloro-1-cyclopropyl-1H-pyrazol-4-yl)amino]quinazolin-7-yl}piperidin-4-yl)azetidin-3-ol], for which the IC50 was 1.71 nM.
As to `CC1(O)CCN(c2cc3nc(Nc4cnn(C5CC5)c4Cl)ncc3cc2Cl)C1` (stereo not shown) [Ex-1.38, 1-{6-chloro-2-[(5-chloro-1-cyclopropyl-1H-pyrazol-4-yl)amino]quinazolin-7-yl}-3-methylpyrrolidin-3-ol], the IC50 was 9.77 nM.
As for `C[C@]1(O)[C@@H]2CC[C@H]1CN(c1cc3nc(Nc4cnn(C5CC5)c4Cl)ncc3cc1Cl)C2` [Ex-1.40, (8-syn)-3-{6-chloro-2-[(5-chloro-1-cyclopropyl-1H-pyrazol-4-yl)amino]quinazolin-7-yl}-8-methyl-3-azabicyclo[3.2.1]octan-8-ol], the IC50 was 11.2 nM.
As for `CC1(O)C2CC1CN(c1cc3nc(Nc4cnn(C5CC5)c4Cl)ncc3cc1Cl)C2` (stereo not shown) [Ex-1.41, 3-{6-chloro-2-[(5-chloro-1-cyclopropyl-1H-pyrazol-4-y)amino]quinazolin-7-yl}-6-methyl-3-azabicyclo[3.1.1]heptan-6-ol], the IC50 is 8.93 nM.
In the case of `CN1CCC2CCN(c3cc4nc(Nc5cnn(C6CC6)c5Cl)ncc4cc3Cl)C2C1` (stereo not shown) [Ex-1.42, 6-chloro-N-(5-chloro-1-cyclopropyl-1H-pyrazol-4-yl)-7-(6-methyloctahydro-1H-pyrrolo[2,3-c]pyridin-1-yl)quinazolin-2-amine], the IC50 was 25.6 nM.
Next, `CC1CN(C2CCN(c3cc4nc(Nc5cnn(C6CC6)c5Cl)ncc4cc3Cl)CC2)C1` [Ex-1.43, 6-chloro-N-(5-chloro-1-cyclopropyl-1H-pyrazol-4-yl)-7-[4-(3-methylazetidin-1-yl)piperidin-1-yl]quinazolin-2-amine]: 12.7 nM.
Next, `Clc1cc2cnc(Nc3cnn(C4CC4)c3Cl)nc2cc1N1CCC(N2CCCC2)CC1` [Ex-1.44, 6-chloro-N-(5-chloro-1-cyclopropyl-1H-pyrazol-4-yl)-7-[4-(pyrrolidin-1-yl)piperidin-1-yl]quinazolin-2-amine]: 22.3 nM.
Turning to `Cc1c(Nc2ncc3ccc(N(C)C4COC4)cc3n2)cnn1C1CCOCC1` [Ex-1.47, N-7-methyl-N-2-[5-methyl-1-(oxan-4-yl)-1H-pyrazol-4-yl]-N-7-(oxetan-3-yl)quinazoline-2,7-diamine], the IC50 was 38.8 nM.
The result for `Cc1c(Nc2ncc3ccc(N4C(=O)OC[C@@H]4C)cc3n2)cnn1C1CCOCC1` [Ex-1.48, (4S)-4-methyl-3-(2-{[5-methyl-1-(oxan-4-yl)-1H-pyrazol-4-yl]amino}quinazolin-7-yl)-1,3-oxazolidin-2-one] reads 0.625 nM.
As to `Cc1cc2cnc(Nc3cnn(C)c3C)nc2cc1N1CCN([C@]2(C)COC[C@@H]2O)CC1` [Ex-2.1, (3R,4R)-4-(4-(2-((1,5-Dimethyl-1H-pyrazol-4-yl)amino)-6-methylquinazolin-7-yl)piperazin-1-yl)-4-methyltetrahydrofuran-3-ol], the IC50 is 0.576 nM.
Take `COCC12CC(n3ncc(Nc4ncc5cc(Cl)c(N6C[C@H]7CC[C@@H](C6)[C@@]7(C)O)cc5n4)c3Cl)(C1)C2` [Ex-3.1, (Endo)-3-(6-chloro-2-((5-chloro-1-(3-(methoxymethyl)bicyclo[1.1.1]pentan-1-yl)-1H-pyrazol-4-yl)amino)quinazolin-7-yl)-8-methyl-3-azabicyclo[3.2.1]octan-8-ol]: the IC50 is 0.093 nM.
Regarding `O[C@H]1COCC12CCN(c1cc3nc(Nc4cnn(C5CC5)c4Cl)ncc3cc1Cl)CC2` [Ex-3.2], the IC50 was 1.06 nM.
For `O[C@@H]1COCC12CCN(c1cc3nc(Nc4cnn(C5CC5)c4Cl)ncc3cc1Cl)CC2` [Ex-3.3], the IC50 was 17.2 nM.
Take `C[C@]1(O)COCC12CCN(c1cc3nc(Nc4cnn(C5CC5)c4Cl)ncc3cc1Cl)CC2` [Ex-3.4]: the IC50 is 19.9 nM.
The result for `C[C@@]1(O)COCC12CCN(c1cc3nc(Nc4cnn(C5CC5)c4Cl)ncc3cc1Cl)CC2` [Ex-3.5] reads 1.54 nM; that for `CC1(O)CCN(c2cc3nc(Nc4cnn([C@H]5CCN(C6COC6)C[C@@H]5F)c4Cl)ncc3cc2Cl)CC1` [Ex-3.6, 1-[6-chloro-2-({5-chloro-1-[(3S,4S)-3-fluoro-1-(oxetan-3-yl)piperidin-4-yl]-1H-pyrazol-4-yl}amino)quinazolin-7-yl]-4-methylpiperidin-4-ol], 0.625 nM.
Take `OC1CCN(c2cc3nc(Nc4cnn(C5CC5)c4)ncc3cc2Cl)CC1` [Ex-3.7, 1-{6-chloro-2-[(1-cyclopropyl-1H-pyrazol-4-yl)amino]quinazolin-7-yl} piperidin-4-ol]: the IC50 is 1.44 nM.
As to `OC1CCN(c2cc3nc(Nc4cnn(C5CC5)c4Cl)ncc3cc2Cl)CC1` [Ex-3.8, 1-{6-chloro-2-[(5-chloro-1-cyclopropyl-1H-pyrazol-4-yl)amino]quinazolin-7-yl}piperidin-4-ol], the IC50 was 2.53 nM.
For `CC1(O)CCN(c2cc3nc(Nc4cnn(C5CC5)c4)ncc3cc2Cl)CC1` [Ex-3.9, 1-{6-chloro-2-[(1-cyclopropyl-1H-pyrazol-4-yl)amino]quinazolin-7-yl}-4-methylpiperidin-4-ol], the IC50 was 5.9 nM.
The result for `CC(C)(O)Cn1cc(Nc2ncc3cc(Cl)c(N4CCC(O)CC4)cc3n2)cn1` [Ex-3.10, 1-(6-chloro-2-{[1-(2-hydroxy-2-methylpropyl)-1H-pyrazol-4-yl]amino}quinazolin-7-yl)piperidin-4-ol] reads 0.407 nM; that for `CC(C)(O)Cn1ncc(Nc2ncc3cc(Cl)c(N4CCC(O)CC4)cc3n2)c1Cl` [Ex-3.11, 1-(6-chloro-2-{[5-chloro-1-(2-hydroxy-2-methylpropyl)-1H-pyrazol-4-yl]amino}quinazolin-7-yl)piperidin-4-ol], 0.488 nM.
Consider `CC(C)(O)Cn1cc(Nc2ncc3cc(Cl)c(N4CCC(C)(O)CC4)cc3n2)cn1` [Ex-3.12, 1-(6-chloro-2-{[1-(2-hydroxy-2-methylpropyl)-1H-pyrazol-4-yl]amino}quinazolin-7-yl)-4-methyl-piperidin-4-ol], for which the IC50 was 0.221 nM.
For the molecule `CC(C)(O)Cn1ncc(Nc2ncc3cc(Cl)c(N4CCC(C)(O)CC4)cc3n2)c1Cl` [Ex-3.13, 1-(6-chloro-2-{[5-chloro-1-(2-hydroxy-2-methylpropyl)-1H-pyrazol-4-yl]amino}quinazolin-7-yl)-4-methylpiperidin-4-ol], the IC50 was 1.54 nM.
Turning to `Cc1c(Nc2ncc3cc(Cl)c(N4CCC(O)CC4)cc3n2)cnn1C1CC1` [Ex-3.14, 1-{6-chloro-2-[(1-cyclopropyl-5-methyl-1H-pyrazol-4-yl)amino]quinazolin-7-yl}piperidin-4-ol], the IC50 was 0.106 nM.
For `COCC12CC(n3cc(Nc4ncc5cc(Cl)c(N6CCC7(CC6)COC(CO)C7)cc5n4)cn3)(C1)C2` (stereo not shown) [Ex-3.15, {8-[6-chloro-2-({1-[3-(methoxymethyl)bicyclo[1.1.1]pentan-1-yl]-1H-pyrazol-4-yl}amino)quinazolin-7-yl]-2-oxa-8-azaspiro [4.5]decan-3-yl}methanol], the IC50 was 0.227 nM.
Take `COCC12CC(n3cc(Nc4ncc5cc(Cl)c(N(C)C)cc5n4)cn3)(C1)C2` [Ex-3.18, 6-chloro-N-2-{1-[3-(methoxymethyl)bicyclo[1.1.1]pentan-1-yl]-1H-pyrazol-4-yl}-N-7-,N-7-dimethylquinazoline-2,7-diamine]: the IC50 is 1.95 nM.
Next, `CC1(n2ncc(Nc3ncc4cc(Cl)c(N5CCN(CCC#N)CC5)cc4n3)c2Cl)CC1` [Ex-3.20, 3-[4-(6-chloro-2-{[5-chloro-1-(1-methylcyclopropyl)-1H-pyrazol-4-yl]amino}quinazolin-7-yl)piperazin-1-yl]propanenitrile]: 1.07 nM; `CC1(N2CCN(c3cc4nc(Nc5cnn(C6CC(F)C6)c5Cl)ncc4cc3Cl)CC2)COC1` (stereo not shown) [Ex-3.21, 6-chloro-N-[5-chloro-1-(3-fluorocyclobutyl)-1H-pyrazol-4-yl]-7-[4-(3-methyloxetan-3-yl)piperazin-1-yl]quinazolin-2-amine]: 4.01 nM; `CC1(n2ncc(Nc3ncc4cc(Cl)c(N5CCN(C6COC6)CC5)cc4n3)c2Cl)CC1` [Ex-3.22, 6-chloro-N-[5-chloro-1-(1-methylcyclopropyl)-1H-pyrazol-4-yl]-7-[4-(oxetan-3-yl)piperazin-1-yl]quinazolin-2-amine]: 0.954 nM.

Values taken from US20230303540A1 (Merck Sharp & Dohme LLC, priority 2020, published 2023).
